Results from US11427548B2 (Arvinas Operations, Inc., priority 2015, dated 2022).
Like-named read-outs stand apart in the source and are kept apart here.

Target: T1, Androgen Receptor (Homo sapiens, UniProt P10275)
T1 construct: endogenous in cells; host or cells: VCaP cells
T1 sequence (P10275 1-920): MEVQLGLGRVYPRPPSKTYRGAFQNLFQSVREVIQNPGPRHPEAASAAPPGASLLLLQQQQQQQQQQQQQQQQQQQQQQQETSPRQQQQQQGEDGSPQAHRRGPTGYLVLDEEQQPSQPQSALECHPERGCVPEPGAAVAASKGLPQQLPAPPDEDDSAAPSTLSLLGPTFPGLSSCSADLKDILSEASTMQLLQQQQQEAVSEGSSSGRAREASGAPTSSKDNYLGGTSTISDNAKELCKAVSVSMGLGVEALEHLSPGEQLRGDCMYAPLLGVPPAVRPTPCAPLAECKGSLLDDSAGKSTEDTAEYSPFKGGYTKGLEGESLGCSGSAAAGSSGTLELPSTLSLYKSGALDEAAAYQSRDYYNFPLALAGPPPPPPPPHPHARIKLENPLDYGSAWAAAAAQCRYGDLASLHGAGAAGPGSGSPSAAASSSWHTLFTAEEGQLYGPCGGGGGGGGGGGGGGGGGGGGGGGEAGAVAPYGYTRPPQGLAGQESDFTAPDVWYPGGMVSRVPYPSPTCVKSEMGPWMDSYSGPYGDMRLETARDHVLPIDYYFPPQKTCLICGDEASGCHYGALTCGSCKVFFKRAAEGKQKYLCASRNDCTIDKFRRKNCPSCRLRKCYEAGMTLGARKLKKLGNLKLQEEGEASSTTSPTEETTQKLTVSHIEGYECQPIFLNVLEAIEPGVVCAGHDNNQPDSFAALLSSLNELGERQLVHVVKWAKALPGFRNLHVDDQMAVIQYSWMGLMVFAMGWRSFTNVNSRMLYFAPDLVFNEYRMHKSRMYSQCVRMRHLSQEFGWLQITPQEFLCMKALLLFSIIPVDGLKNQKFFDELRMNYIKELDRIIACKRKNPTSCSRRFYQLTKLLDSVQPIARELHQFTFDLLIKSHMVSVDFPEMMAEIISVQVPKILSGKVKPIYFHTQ
Assay: Androgen Receptor ELISA assay (PathScan AR ELISA) in VCaP cells: AR degradation, Dmax and DC50
Format: cell-based
Procedure, shortened: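 VCaP cells in phenol red-free RPMI with 5% charcoal-stripped FBS were grown at least 3 days, then given compound as 7 half-log doses in 0.1% DMSO with 0.1 nM R1881 for 24 h. Lysates went into a sandwich AR ELISA with TMB read at 450 nm.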

[1] = read-out: VCaP DC50; VCaP cells; Table 36
[2] = VCaP cells; Table 36; read-out: VCaP DC50
[3] = VCaP, VCaP cells; Table 36; read-out: VCaP Dmax (%)
[4] = VCaP cells; Table 35; read-out: VCaP DC50
[5] = VCaP, VCaP cells; Table 35; read-out: VCaP Dmax (%)
[6] = read-out: VCaP DC50; concentration that caused 50% Androgen Receptor degradation, VCaP cells (Table 32)

`Cc1ncsc1-c1ccc([C@H](C)NC(=O)[C@@H]2C[C@@H](O)CN2C(=O)[C@@H](NC(=O)COCCN2C[C@@H]3C[C@H]2CN3c2ccc(C(=O)N[C@H]3C(C)(C)[C@H](Oc4ccc(C#N)c(Cl)c4)C3(C)C)cn2)C(C)(C)C)cc1` [Example 637, N-((1r,3S)-3-(3-chloro-4-cyanophenoxy)-2,2,4,4-tetramethylcyclobutyl)-6-((1S,4S)-5-(2-(2-(((S)-1-((2S,4R)-4-hydroxy-2-(((S)-1-(4-(4-methylthiazol-5-yl)phenyl)ethyl)carbam-oyl)pyrrolidin-1-yl)-3,3-dimethyl-1-oxobutan-2-yl)amino)-2-oxoethoxy)ethyl)-2,5-diazabicyclo[2.2.1]hept-an-2-yl)nicotinamide] was tested, and the Dmax (VCaP, read-out: VCaP Dmax (%)) was > 71% and the DC50 [1] was < 50 nM.
For `Cc1ncsc1-c1ccc([C@H](C)NC(=O)C2C[C@@H](O)CN2C(=O)C(NC(=O)CN2CCN(CCCCc3ccc(C(=O)N[C@H]4C(C)(C)[C@H](Oc5ccc(C#N)c(Cl)c5)C4(C)C)cc3)CC2)C(C)(C)C)cc1` (stereo partly drawn) [Example 806, (2S,4R)-1-((S)-2-(2-(4-(4-(4-(((1r,3r)-3-(3-chloro-4-cyanophenoxy)-2,2,4,4-tetramethylcyclobutyl)carbamoyl)phenyl)butyl)piperazin-1-yl)acetamido)-3,3-dimethylbutanoyl)-4-hydroxy-N-((S)-1-(4-(4-methylthiazol-5-yl)phenyl)ethyl)pyrrolidine-2-carboxamide], the DC50 [2] was < 50 nM and the Dmax [3] was > 71%.
In the case of `CC(C)(C)[C@H](NC(=O)COCCCOCCCCOc1ccc(N2C(=S)N(c3ccc(C#N)c(Cl)c3)C(=O)C2(C)C)cc1F)C(=O)N1C[C@H](O)C[C@H]1C(=O)NCc1ccc(-c2cnco2)cc1` [Example 45, (2S,4R)-1-[(2S)-2-{2-[3-(4-{4-[3-(3-chloro-4-cyanophenyl)-5,5-dimethyl-4-oxo-2-sulfanylideneimidazolidin-1-yl]-2-fluorophenoxy}butoxy)propoxy]acetamido}-3,3-dimethylbutanoyl]-4-hydroxy-N-{[4-(1,3-oxazol-5-yl)phenyl]methyl}pyrrolidine-2-carboxamide], the Dmax (VCaP, read-out: VCaP Dmax (%)) is reported as > 71% and the DC50 (read-out: VCaP DC50; concentration that caused 50% Androgen Receptor degradation, VCaP cells) is reported as < 50 nM.
For `Cc1ncsc1-c1ccc([C@@H](C)NC(=O)[C@H]2C[C@H](O)CN2C(=O)[C@H](NC(=O)COCCCCCNc2ccc(C(=O)N[C@H]3C(C)(C)[C@H](Oc4ccc(C#N)c(Cl)c4)C3(C)C)cc2)C(C)(C)C)cc1` [Example 454], the DC50 [4] was > 501 nM and the Dmax [5] was 26 to 50%.
For `Cc1nccn1-c1ccc([C@H](C)NC(=O)[C@@H]2C[C@@H](O)CN2C(=O)[C@@H](NC(=O)CNC(=O)c2ccc(Oc3ccc(C(=O)N[C@H]4C(C)(C)[C@H](Oc5ccc(C#N)c(Cl)c5)C4(C)C)cc3)cc2)C(C)(C)C)cc1` [Example 444], the DC50 [4] was < 50 nM and the Dmax [5] was > 71%.
With `Cc1ncsc1-c1ccc([C@H](C)NC(=O)C2C[C@@H](O)CN2C(=O)[C@@H](NC(=O)c2cc3ccc(OC[C@H]4C[C@H](COc5ccc(N6C(=S)N(c7ccc(C#N)c(C(F)(F)F)c7)C(=O)C6(C)C)cc5)C4)cc3o2)C(C)(C)C)cc1` (stereo partly shown) [Example 605, 1-(2-(6-((3-((4-(3-(4-cyano-3-(trifluoromethyl)phenyl)-5,5-dimethyl-4-oxo-2-thioxoimidazolidin-1-yl)phenoxy)methyl)cyclo-butyl)methoxy)benzo-furan-2-carboxamido)-3,3-dimethylbutanoyl)-4-hydroxy-N-(1-(4-(4-methylthiazol-5-yl)phenyl)ethyl)pyrroli-dine-2-carboxamide] the Dmax (VCaP, read-out: VCaP Dmax (%)) was < 25% and the DC50 [1] was > 501 nM.
For `Cc1ncsc1-c1ccc(CNC(=O)[C@@H]2C[C@@H](O)CN2C(=O)[C@@H](NC(=O)COCCCCCNc2ccc(C(=O)N[C@H]3C(C)(C)[C@H](Oc4ccc(C#N)c(Cl)c4)C3(C)C)cc2)C(C)(C)C)nc1` [Example 538], the DC50 [4] was > 501 nM and the Dmax [5] was 51 to 70%.
`CC(C)[C@@H](C(=O)N1C[C@H](O)C[C@H]1C(=O)NCc1ccc(Cl)cc1OCCN1CCN(c2ccc(C(=O)N[C@H]3C(C)(C)[C@H](Oc4ccc(C#N)c(Cl)c4)C3(C)C)cn2)CC1)N1Cc2ccccc2C1=O` [Example 743, 6-(4-(2-(5-chloro-2-(((2S,4R)-4-hydroxy-1-((S)-3-methyl-2-(1-oxoisoindolin-2-yl)butanoyl)pyrrolidine-2-carboxamido)methyl)phenoxy)ethyl)piperazin-1-yl)-N-((1r,3r)-3-(3-chloro-4-cyanophenoxy)-2,2,4,4-tetramethylcyclobutyl) nicotinamide] was tested, and the DC50 [2] was > 501 nM and the Dmax [3] was < 25%.
With `Cc1ncsc1-c1ccc([C@H](C)NC(=O)[C@@H]2CC(O)CN2C(=O)[C@H](C(C)C)N2Cc3cc(OCCN4CCN(c5ccc(C(=O)N[C@H]6C(C)(C)[C@H](Oc7ccc(C#N)c(Cl)c7)C6(C)C)cn5)CC4)ccc3C2=O)cc1` (stereo partly drawn) [Example 848, N-((1r,3r)-3-(3-chloro-4-cyanophenoxy)-2,2,4,4-tetramethylcyclobutyl)-6-(4-(2-((2-((S)-1-((2S, 4R)-4-hydroxy-2-(((S)-1-(4-(4-methylthiazol-5-yl)phenyl)ethyl)carbamoyl)pyrrolidin-1-yl)-3-methyl-1-oxobutan-2-yl)-1-oxoisoindolin-5-yl)oxy)ethyl)piperazin-1-yl)nicotinamide] the DC50 [2] was < 50 nM and the Dmax [3] was > 71%.
With `CC(C)(C)[C@H](NC(=O)COCCCCOc1ccc(-c2ccc(N3C(=S)N(c4ccc(C#N)c(Cl)c4)C(=O)C34CCC4)cc2)cc1)C(=O)N1C[C@H](O)C[C@H]1C(=O)NCc1ccc(-c2cnco2)cc1` [Example 124, (2S,4R)-1-[(2S)-2-{2-[4-(4-{4-[7-(3-chloro-4-cyanophenyl)-8-oxo-6-sulfanylidene-5,7-diazaspiro[3.4]octan-5-yl]phenyl}phenoxy)butoxy]acetamido}-3,3-dimethylbutanoyl]-4-hydroxy-N-{[4-(1,3-oxazol-5-yl)phenyl]methyl}pyrrolidine-2-carboxamide] the Dmax (VCaP, read-out: VCaP Dmax (%)) was 51 to 70% and the DC50 [6] was < 50 nM.
`Cc1ncsc1-c1ccc(CNC(=O)[C@@H]2C[C@@H](O)CN2C(=O)[C@@H](NC(=O)COCCCCOc2cccc(-c3ccc(N4C(=S)N(c5ccc(C#N)c(C(F)(F)F)c5)C(=O)C4(C)C)cc3)c2)C(C)(C)C)cc1` [Example 99, (2S,4R)-1-[(2S)-2-(2-{4-[3-(4-{3-[4-cyano-3-(trifluoromethyl)phenyl]-5,5-dimethyl-4-oxo-2-sulfanylideneimidazolidin-1-yl}phenyl)phenoxy]butoxy}acetamido)-3,3-dimethylbutanoyl]-4-hydroxy-N-{[4-(4-methyl-1,3-thiazol-5-yl)phenyl]methyl}pyrrolidine-2-carboxamide] was tested, and the Dmax (VCaP, read-out: VCaP Dmax (%)) was 51 to 70% and the DC50 [6] was < 50 nM.
For `C[C@H](NC(=O)[C@@H]1C[C@@H](O)CN1C(=O)[C@@H](NC(=O)COCCCCOc1ccc(C(=O)N[C@H]2C(C)(C)[C@H](Oc3ccc(C#N)c(Cl)c3)C2(C)C)cc1)C(C)(C)C)c1ccc(C#N)cc1` [Example 548], the DC50 [4] was < 50 nM and the Dmax [5] was 51 to 70%.
In the case of `Cc1ncsc1-c1ccc([C@H](C)NC(=O)[C@@H]2C[C@@H](O)CN2C(=O)[C@H](C(C)C)N2Cc3ccc(N4CCN(CCCc5ccc(C(=O)N[C@H]6C(C)(C)[C@H](Oc7ccc(C#N)c(Cl)c7)C6(C)C)cc5)CC4)cc3C2=O)cc1` [Example 778, (2S,4R)-1-((S)-2-(6-(4-(3-(4-(((1r,3r)-3-(3-chloro-4-cyanophenoxy)-2,2,4,4-tetramethylcyclobutyl)carbamoyl)phenyl)propyl)piperazin-1-yl)-1-oxoisoindolin-2-yl)-3-methylbutanoyl)-4-hydroxy-N-((S)-1-(4-(4-methylthiazol-5-yl)phenyl)ethyl)pyrrolidine-2-carboxamide], the DC50 [2] is reported as > 501 nM and the Dmax (VCaP, read-out: VCaP Dmax (%)) is reported as < 25%.
In the case of `COc1cc(C#N)ccc1[C@H](C)NC(=O)[C@@H]1C[C@@H](O)CN1C(=O)[C@@H](NC(=O)CCCCN1CCN(c2ccc(C(=O)N[C@H]3C(C)(C)[C@H](Oc4ccc(C#N)c(Cl)c4)C3(C)C)cn2)CC1)C(C)(C)C` [Example 784, N-((1r,3r)-3-(3-chloro-4-cyanophenoxy)-2,2,4,4-tetramethylcyclobutyl)-6-(4-(5-(((S)-1-((2S,4R)-2-(((S)-1-(4-cyano-2-methoxyphenyl)ethyl)carbamoyl)-4-hydroxypyrrolidin-1-yl)-3,3-dimethyl-1-oxobutan-2-yl)amino)-5-oxopentyl)piperazin-1-yl)nicotinamide], the DC50 [2] is reported as > 501 nM and the Dmax [3] is reported as < 25%.
